Laboratory results: patent US5744499A, “Apoptosis-modulating factors influencing the intracellular concentration of methional/malondialdehyde” (Centre International de Recherches Dermatologiques Galderma, priority 1994, dated 1998)

How the values were obtained:
BAF3-bO cells = assay: Induction of DNA fragmentation by methional in BAF3-bO cells ([3H]-thymidine); assay type: cell-based, mouse; settings: 400 μM methional, 8 hours; control 7%
Experimental: (§1) The cells used were a BAF3 lymphocytic cell line, such as that described above. The BAF3-bcl2 cells corresponded to BAF3 cells transfected by the bcl2 gene. The BAF3-bO cells corresponded to BAF3 cells not transfected by the bcl2 gene. As indicated above, the BAF3-bO cells underwent apoptosis (more than 80% of the cells) in the absence of IL3 for 16 hours. On the other hand, the BAF3-bcl2 cells, which were transfected by the bcl2 gene, evidenced no sign of apoptosis in the absence of IL3. Accordingly, they constituted a good model for determining the apoptosis step blocked in these cells, and its potential correlation with the inhibition of malondialdehyde synthesis.
(§2) The BAF3-bO or BAF3-bcl2 cells were marked by adaptation of the method described in S. Wright et al, J. of Cell. Biochem., 48, 344-355 (1992), by incubating 2.5×10^5 cells/ml with 0.5 μCi [3H]-thymidine for 40 hours at 37° C. After two washings in a culture medium, 2.5×10^6 cells were cultured in the presence of methional. […] The aliquots of the culture medium (1 ml), of the supernatant (0.3 ml), and of the solubilized sediment (0.1 ml) were measured by quantitative analysis in the scintillation counter. The percentage of DNA fragments was calculated in the following manner: […]

[1] = test system: murine B16 Fl melanoma cells; assay: Survival of mice grafted with B16 melanoma cells; assay type: in vivo, mouse; settings: Table 5; three mice; daily injection for 15 days; BCNU 0.1 mg/kg, Compound A 25 mg/kg, Methional 25 mg/kg; control 20.5
Experimental: At t=0 day, 10^5 murine B16 Fl melanoma cells were injected into B6D2Fl mice (from the IFFA CREDO Company, France).
Table 5 reports the results corresponding to averages of the results obtained on three treated mice.
For the regimens containing multiple compounds, the quantities of each of the compounds used were identical to those of the regimens using the compounds by themselves.
Survival time was recorded beginning at t=0 day, as indicated above.
BCNU corresponds to N,N-Bis(2-chloroethyl)-N-nitrosourea. Compound A corresponds to the compound having formula (9), wherein X is a --OH radical.
Between the two regimens, the latter (to which methional was added) accounted for one-third of the mice surviving more than 60 days. The "average survival time" is the mean of the number of mice dying over the course of the experiment, i.e., within 60 days.
The procedure of the previous example was repeated, but the regimens and numbers of mice treated varied.
With respect to this latter regiment, the quantities corresponded to the quantities of compounds used alone. The percentage of long-term survivors corresponded to the percentage of mice which survived beyond 60 days.

HeLa cells = assay: Effect of metabolites on the growth of HeLa cells; assay type: cell-based; settings: Homo sapiens, 72 h, three days at 37° C., estimated by protein content, average of 3 or 4 experiments, read-out: IC50 (concentration required to inhibit cell growth by 50%)
Experimental: HeLa cells (0.5×10^6 per Petri dish) were cultured in 3 ml of a minimum essential Eagle medium containing 10% by weight dialyzed fetal calf serum. After four hours, methional (10 μM-1 mM), methionol (10 μM-20 mM), methylthiopropionic acid (MTPA) (1 μM-20 mM), L-methionine (1 μM-20 mM) or 4-methylthio-2-oxobutanoic acid (MTOB) (1 μM-20 mM) were added to each of the three dishes. After three days at 37° C., the cells were washed twice in a buffered, phosphatized saline medium having a pH of 7.5 (PBS medium) and collected in the same type of buffer.
Cell growth was assessed by measuring protein content (see technique described in O. H. Lowry, N. J. Rosebrouh, A. L. Farr, and R. J. Randall, J. Biol. Chem., 193, 265-275 (1951)) or the DNA content in the lysate using a bisbenzimide trihydrochloride solution (Hoechst 33258) (see W. D. Jarvis, R. N. Kolesnick, F. A. Fornari, R. S. Traylor, D. A. Gewirtz, and S. Grant, Proc. Natl. Acad. Sci. USA, 91, 73-77 (1994)), or by determining […] using 3-(4,5-dimethylthiazol-2-yl)-2,5-diphenyl-tetrazolium bromide (MTT) (see T. Mosmann, J. of Immunology, Methods, 65, 55-63 (1983)).
Each value of is the average of 3 or 4 experiments as estimated by protein content.
IC50 represents the concentration of compound required to inhibit cell growth by 50%.

BAF3-bcl2 cells = assay: Induction of DNA fragmentation by methional in BAF3-bcl2 cells ([3H]-thymidine); assay type: cell-based, mouse
Experimental: as §1, §2

BAF3 cells [2] = assay: DNA fragmentation in BAF3 cells, agarose gel electrophoresis; assay type: cell-based, mouse; settings: 200-800 μM, medium with IL3, 8 hours
Experimental: K. L. Collins, J. Marvel, […] A. Lopez-[…]. Exp. Med., 176, 1043-1051 (1992)]. […] After 8 hours of contact, the cells were washed three times in a phosphatized buffered saline medium, pH=7.5 (PBS medium). […] The supernatants were decanted and analyzed as indicated below. For purposes of comparison, the same cultures were grown in a medium, either with IL3 (+IL3) or without IL3 (-IL3). The DNA fragments obtained were analyzed qualitatively using the method described, in particular, in W. D. Jarvis, […], and S. Grant, Proc. Natl. Acad. Sci. USA, 91, 73-77 (1994). The supernatants were treated with ribonuclease A (20 μg/ml) for 1 hour at 37° C., and with the proteinase R (100 μg/ml). The DNA was purified using phenol extraction and precipitated with ethanol. […] After electrophoresis (60V, 3 hours), the gels were stained with ethydium bromide.

BAF3 cells [3] = assay: DNA fragmentation in BAF3 cells, spectrofluorometric analysis (Hoechst 33258); assay type: cell-based, mouse
Experimental: 3×10^6 BAF3 cells were grown in 6 ml of a culture medium containing IL3 in Petri dishes in the presence of different concentrations (200-800 μM) of methional or […], a substrate of the aldehyde dehydogenase. After 8 hours of contact, the cells were washed three times in a phosphatized buffered saline medium, pH=7.5 (PBS medium). These cells were lysed in 2 ml 0.1% Triton X-100, 20 mM EDTA (ethylenediaminetetraacetic acid), 5 mM Tris pH 8, and then centrifuged at 30,000 g at 4° C. for 30 minutes. The supernatants were decanted and analyzed as indicated below.
For purposes of comparison, the same cultures were grown in a medium, either with IL3 (+IL3) or without IL3 (-IL3).
Spectrofluorometric analysis was carried out to measure the […] of DNA fragments obtained (<3 kilobases). 1 ml of a solution of bisbenzimide trihydrochloride (Hoechst 33258) (1 μg/ml) in 3 mM sodium chloride, 1 mMd4EDTA, 10 mM Tris, pH=8, was added to 2 ml supernatant. The solutions obtained were analyzed by fluorometry (excitation λ=365 nm, emission λ=460 nm). The quantities of DNA were calculated in relation to highly-purified DNA (0.1 to 1 μh in 2 ml lysis buffer) treated as indicated above and expressed in 10^-9 g DNA collected from 3×10^6 cells.

SMILES: CSCCC=O [methional, 3-methylthiopropanal]
- percentage of DNA fragments (maximum) (BAF3-bO cells): 26%
- Average Survival Time [1]: 27 days
- IC50 (HeLa cells): 100 µM
- percentage of DNA fragments (maximum) (BAF3-bcl2 cells; 400 μM methional, 8 hours, control 3%): 7%
- elimination of the bcl2 inhibition of apoptosis (BAF3-bcl2 cells; methional 50-400 μM): did not permit eliminating the inhibition of apoptosis resulting from the bcl2 gene
- triggering of apoptosis (ladder of DNA fragments of 180 to 200 base pairs on gel) (BAF3 cells [2]): apoptosis was triggered
- quantity of DNA fragments (<3 kilobases) (BAF3 cells [3]; +IL3, 8 hours contact, methional 200-800 μM (concentration not given)): 127 10^-9 g DNA/3 × 10^6 cells
- increase in amount of DNA fragments compared with cells without IL3 (BAF3 cells [3]; cells treated with IL3 and methional): comparable to the quantity found when the cells were placed in a medium not containing IL3
